# Results reported in patent US20040096356A1, “Assay device for determining analytes in a liquid dairy product” (priority 1997, published 2004).
# Key:
# Format in all cases: binding
# receptor BlaR-CTD [1] = molecular target: T1, receptor BlaR-CTD (Bacillus licheniformis, UniProt P12287); assay: Five minutes test: strip test for β-lactam antibiotics in milk using BlaR-CTD; conditions: for lowest concentration detected in a milk sample: in 5 minutes, positive when first band is less intense than second band; for Intensity 1st band: scale 0 to 10, reference band 6, 47° C., 3 min incubation + 2 min migration
# T1 construct: the receptor BlaR-CTD is the carboxy-terminal region of BlaR
# Text: (§1) According to a preferred embodiment of the invention an identifier is used which comprises a receptor sensitive to antibiotics having a β-lactam ring, which receptor is obtained from Bacillus licheniformis, such as the receptor BlaR or the receptor BlaR-CTD. The isolation and the peptide sequence of the protein BlaR are described in Y. Zhu et al., J. Bacteriol., 1137-1141 (1990); the receptor BlaR-CTD is the carboxy-terminal region of BlaR, whose isolation and peptide sequence are described in B. Joris et al., FEMS Microbiology Letters, 107-114 (1990).
# (§2) This example illustrates the detection in milk of antibiotics having a β-lactam ring which are monitored by the health authorities. The test described in this example uses the receptor BlaR-CTD coupled with gold beads, which serve as labelling agents, and uses a support which is in the form of an assay device comprising a solid support on which membranes are fixed.
# (§3) 3.79 ml of a solution of recognition agent BlaR-CTD having a concentration of 6.6 mg/ml are taken up in a sodium phosphate buffer, 20 mM pH 7. To this solution of BlaR-CTD are then added 41.71 ml of bicarbonate buffer (0.1 M sodium bicarbonate, pH 9) and 2 ml of a solution of N-hydroxysuccinimide 6-(biotinamido)caproic ester containing 2.23 mg/ml likewise of bicarbonate buffer. This solution is stirred gently on a LABINCO stirrer for tubes on a rotary axis (available from VEL, Belgium) at a rate of 2 revolutions/minute for 2 hours at ambient temperature and away from light. 2.5 ml of a solution of Tris buffer, 1 M pH 8 are incubated with the reaction mixture under the same conditions for 30 minutes. The solution thus obtained is dialysed against HNM buffer (Hepes 100 mM, pH 8, NaCl 100 mM, MgCl2 50 mM) for 24 hours. In this way a biotinylated BlaR-CTD solution is obtained which is diluted in HNM-BSA buffer (Hepes 500 mM, pH 8, NaCl 500 mM, MgCl2 250 mM, BSA 10 mg/ml) to a concentration of 250 μg of biotinylated BlaR-CTD per ml of buffer. This solution is stored at −20° C.
# (§4) The biotinylated BlaR-CTD solution prepared in Example 3.1.1 is diluted 114.7 times with the HNM-BSA buffer (Hepes 500 mM, pH 8, NaCl 500 mM, MgCl2 250 mM, BSA 10 mg/ml). At room temperature, 22.5 parts by volume of this dilute biotinylated BlaR-CTD solution, 7.5 parts by volume of HNM-BSA buffer, 9.27 parts by volume of the gold particle suspension used to label the biotinylated BlaR-CTD and 6 parts by volume of reference gold particle suspension are mixed (see Example 3.1.4 below).
# (§5) The first capture substance makes it possible to fix the BlaR-CTD coupled with the gold beads present in excess relative to the quantity of antibiotic present in the sample.
# (§6) Assay devices containing membranes (2), (3) and (4) are used, assembled in accordance with the procedure described in Example 1.1. The membrane (3) of these devices carries on the proximal side the capture substance described in Example 32.1. and on the distal side the capture substance described in Example 3.2.2. The capture substances were deposited in accordance with the procedure described in Example 1.2.
# Six samples of fresh milk are prepared, containing 0; 2; 4; 6; 8 and 10 ppb, repsectively, of cloxacillin. Each of these solutions is then analysed as follows.
# (§7) An aliquot is taken of 200 μl of milk sample and 45.27 μl of solution prepared in Example 3.1.3, and is placed in a glass flask. This mixture is incubated at 47° C. for 3 minutes. An assay device is taken and is placed vertically in the glass flask such that the first end of the assay device is in contact with the mixture in such a way that the second end rests on the wall of the glass flask. The mixture is allowed to migrate over the assay device while the assembly is incubated at 47° C. for 2 minutes.
# (§8) An intensity value ranging from 0 to 10 is awarded to the bands detected, the value 10 being given to the most intense band and the value 0 being given to the least intense band. On this scale, a value of 6 is awarded to the reference band. […]
# receptor BlaR-CTD [2] = molecular target: T1, receptor BlaR-CTD; assay: 9-minute test: strip test for β-lactam antibiotics in milk using BlaR-CTD; conditions: for lowest concentration detected in a milk sample: in 9 minutes, positive when first band is less intense than second band; for Intensity 1st band: scale 0 to 10, reference band 6, 47° C., 7 min incubation + 2 min migration
# Text: as §1, §2, §3, §4, §5, §6
# Six samples of fresh milk are prepared, containing 0; 4; 6; 8; 10 and 12 ppb, respectively, of cephapirin. Each of these solutions is then analysed as follows.
# as §7, with “for 7” for “for 3”
# as §8
# receptor BlaR-CTD [3] = molecular target: T1, receptor BlaR-CTD; assay: 20-minute test: strip test for β-lactam antibiotics in milk using BlaR-CTD; conditions: for Intensity 1st band: scale 0 to 10, reference band 6, 47° C., 18 min incubation + 2 min migration
# Text: as §1, §2, §3, §4, §5, §6
# Six samples of fresh milk are prepared, containing 0; 20; 30; 40; 50 and 60 ppb, respectively, of ceftiofur. Each of these solutions is then analysed as follows.
# as §7, with “for 18” for “for 3”
# An intensity value ranging from 0 to 10 is awarded to the bands detected, the value 10 being given to the most intense band and the value 0 being given to the least intense band. On this scale, a value 6 is awarded to the reference band. […]
# receptor BlaR-CTD [4] = molecular target: T1, receptor BlaR-CTD; assay: 3-minute rapid test: strip test for β-lactam antibiotics in milk using BlaR-CTD; conditions: in 3 minutes; positive when first band is less intense than second band
# Text: as §1, §2, §3, §4, §5, §6
# 7 samples of fresh milk are prepared, containing 0; 1; 2; 3; 4; 5 and 6 ppb, respectively, of penicillin G. Each of these solutions is then analysed as follows.
# as §7, with “for 1 minute.” for “for 3 minutes.”, “mixture and” for “mixture in”, “such” for “such a way”
# as §8
# T1 sequence (P12287 340-601): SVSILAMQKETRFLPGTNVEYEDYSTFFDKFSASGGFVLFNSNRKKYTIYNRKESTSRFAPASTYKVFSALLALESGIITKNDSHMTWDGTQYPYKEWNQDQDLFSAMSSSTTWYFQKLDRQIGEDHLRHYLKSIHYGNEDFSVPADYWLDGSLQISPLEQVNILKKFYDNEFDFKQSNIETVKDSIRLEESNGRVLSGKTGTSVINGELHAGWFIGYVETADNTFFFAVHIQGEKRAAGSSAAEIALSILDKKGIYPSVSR
Compound,lowest concentration detected in a milk sample (receptor BlaR-CTD [1]),lowest concentration detected in a milk sample (receptor BlaR-CTD [2]),lowest concentration detected in a milk sample (receptor BlaR-CTD [4]),further results
"CO/N=C(\C(=O)N[C@@H]1C(=O)N2C(C(=O)O)=C(CSC(=O)c3ccco3)CS[C@H]12)c1csc(N)n1 [Ceftiofur, ceftiofur]",100 ppb,80 ppb,–,"Intensity 1st band (receptor BlaR-CTD [3]; 20 ppb ceftiofur in fresh milk): 6; Intensity 1st band (receptor BlaR-CTD [3]; 30 ppb ceftiofur in fresh milk): 5; Intensity 1st band (receptor BlaR-CTD [3]; 40 ppb ceftiofur in fresh milk): 4; Intensity 1st band (receptor BlaR-CTD [3]; 50 ppb ceftiofur in fresh milk): 3; Intensity 1st band (receptor BlaR-CTD [3]; 60 ppb ceftiofur in fresh milk): 3; lowest concentration detected in a milk sample (receptor BlaR-CTD [3]; in 20 minutes, positive when first band is less intense than second band): 30 ppb"
"CC(=O)OCC1=C(C(=O)O)N2C(=O)[C@@H](NC(=O)CSc3ccncc3)[C@H]2SC1 [Cephapirin, cephapirin]",16 ppb,6 ppb,20 ppb,Intensity 1st band (receptor BlaR-CTD [2]; 4 ppb cephapirin in fresh milk): 6; Intensity 1st band (receptor BlaR-CTD [2]; 6 ppb cephapirin in fresh milk): 5; Intensity 1st band (receptor BlaR-CTD [2]; 8 ppb cephapirin in fresh milk): 4; Intensity 1st band (receptor BlaR-CTD [2]; 10 ppb cephapirin in fresh milk): 3; Intensity 1st band (receptor BlaR-CTD [2]; 12 ppb cephapirin in fresh milk): 3
"Cc1onc(-c2ccccc2Cl)c1C(=O)N[C@@H]1C(=O)N2[C@@H]1SC(C)(C)[C@@H]2C(=O)O [Cloxacillin, cloxacillin]",4 ppb,4 ppb,less than 10 ppb,Intensity 1st band (receptor BlaR-CTD [1]; 2 ppb cloxacillin in fresh milk): 6; Intensity 1st band (receptor BlaR-CTD [1]; 4 ppb cloxacillin in fresh milk): 5; Intensity 1st band (receptor BlaR-CTD [1]; 6 ppb cloxacillin in fresh milk): 3; Intensity 1st band (receptor BlaR-CTD [1]; 8 ppb cloxacillin in fresh milk): 3; Intensity 1st band (receptor BlaR-CTD [1]; 10 ppb cloxacillin in fresh milk): 3
CC1(C)S[C@@H]2[C@H](NC(=O)[C@H](N)c3ccc(O)cc3)C(=O)N2[C@H]1C(=O)O [amoxicillin],4 ppb,4 ppb,5 ppb,–
CC1(C)S[C@@H]2[C@H](NC(=O)[C@H](N)c3ccccc3)C(=O)N2[C@H]1C(=O)O [ampicillin],4 ppb,4 ppb,5 ppb,–
Cc1nnc(SCC2=C(C(=O)O)N3C(=O)[C@@H](NC(=O)Cn4cnnn4)[C@H]3SC2)s1 [cefazolin],60 ppb,45 ppb,–,–
CO/N=C(\C(=O)N[C@@H]1C(=O)N2C(C(=O)[O-])=C(C[n+]3cccc4c3CCCC4)CS[C@H]12)c1csc(N)n1 [cefquinone],less than 20 ppb,less than 20 ppb,–,–
Cc1onc(-c2c(Cl)cccc2Cl)c1C(=O)N[C@@H]1C(=O)N2[C@@H]1SC(C)(C)[C@@H]2C(=O)O [dicloxacillin],8 ppb,8 ppb,–,–
CCOc1ccc2ccccc2c1C(=O)N[C@@H]1C(=O)N2[C@@H]1SC(C)(C)[C@@H]2C(=O)O [nafcillin],20 ppb,20 ppb,–,–
Cc1onc(-c2ccccc2)c1C(=O)N[C@@H]1C(=O)N2[C@@H]1SC(C)(C)[C@@H]2C(=O)O [oxacillin],8 ppb,8 ppb,–,–
